Columns and labels:
Assay in all cases: KINOMEscan competitive binding, whole panel
[1] = molecular target: T1, panel of 203 kinases (Homo sapiens, UniProt Q9UF33); details: 10 µM, n=1; kinase EPHA6; read-out: Percent inhibition EPHA6
T1 construct: purchased DiscoverX (KINOMEscan)
T1 sequence (Q9UF33 23-1036): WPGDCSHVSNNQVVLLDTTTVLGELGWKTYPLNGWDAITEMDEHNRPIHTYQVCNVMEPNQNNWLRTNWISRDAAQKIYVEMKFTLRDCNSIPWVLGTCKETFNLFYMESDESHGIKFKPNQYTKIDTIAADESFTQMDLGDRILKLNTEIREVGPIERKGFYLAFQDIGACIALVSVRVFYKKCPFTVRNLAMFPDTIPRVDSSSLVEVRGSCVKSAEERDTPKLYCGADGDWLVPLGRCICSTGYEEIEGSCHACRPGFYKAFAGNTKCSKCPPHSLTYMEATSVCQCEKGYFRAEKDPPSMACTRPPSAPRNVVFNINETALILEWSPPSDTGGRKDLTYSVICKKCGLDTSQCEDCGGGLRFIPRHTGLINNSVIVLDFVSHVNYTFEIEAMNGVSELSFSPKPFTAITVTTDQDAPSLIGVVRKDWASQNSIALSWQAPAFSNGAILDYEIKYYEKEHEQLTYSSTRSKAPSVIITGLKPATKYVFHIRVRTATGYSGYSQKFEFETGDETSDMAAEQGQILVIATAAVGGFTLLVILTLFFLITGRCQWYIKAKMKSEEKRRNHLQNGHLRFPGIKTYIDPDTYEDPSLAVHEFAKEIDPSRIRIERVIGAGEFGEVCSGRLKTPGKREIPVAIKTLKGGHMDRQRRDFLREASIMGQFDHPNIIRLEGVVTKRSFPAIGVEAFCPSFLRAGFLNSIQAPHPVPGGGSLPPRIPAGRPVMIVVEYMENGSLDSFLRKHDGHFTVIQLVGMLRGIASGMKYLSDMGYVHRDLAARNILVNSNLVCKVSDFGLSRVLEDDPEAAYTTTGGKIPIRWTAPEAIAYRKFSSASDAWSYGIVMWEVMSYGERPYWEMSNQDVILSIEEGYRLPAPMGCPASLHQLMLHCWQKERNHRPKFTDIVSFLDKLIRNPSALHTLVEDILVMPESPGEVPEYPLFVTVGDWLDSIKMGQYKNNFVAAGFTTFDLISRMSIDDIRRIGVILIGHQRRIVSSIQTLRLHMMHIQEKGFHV
In short: (§1)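 T7 phage-fused kinases; compound displaces immobilized ATP-site probe ligand; bead-bound kinase quantified; % inhibition reported.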

[2] = molecular target: T2, panel of 203 kinases (Homo sapiens, UniProt P54646); details: 10 µM, n=1; kinase AMPK-alpha2; read-out: Percent inhibition AMPK-alpha2
T2 construct: purchased DiscoverX (KINOMEscan)
In short: as §1

[3] = molecular target: T3, panel of 203 kinases (Homo sapiens, UniProt P08069); details: 10 µM, n=1; kinase IGF1R; read-out: Percent inhibition IGF1R
T3 construct: purchased DiscoverX (KINOMEscan)
In short: as §1

[4] = molecular target: T4, panel of 203 kinases (Homo sapiens, UniProt Q9Y243); details: 10 µM, n=1; kinase AKT3; read-out: Percent inhibition AKT3
T4 construct: purchased DiscoverX (KINOMEscan)
In short: as §1

[5] = molecular target: T5, panel of 203 kinases (Homo sapiens, UniProt Q04771); details: 10 µM, n=1; kinase ACVR1; read-out: Percent inhibition ACVR1
T5 construct: purchased DiscoverX (KINOMEscan)
T5 sequence (Q04771 21-509): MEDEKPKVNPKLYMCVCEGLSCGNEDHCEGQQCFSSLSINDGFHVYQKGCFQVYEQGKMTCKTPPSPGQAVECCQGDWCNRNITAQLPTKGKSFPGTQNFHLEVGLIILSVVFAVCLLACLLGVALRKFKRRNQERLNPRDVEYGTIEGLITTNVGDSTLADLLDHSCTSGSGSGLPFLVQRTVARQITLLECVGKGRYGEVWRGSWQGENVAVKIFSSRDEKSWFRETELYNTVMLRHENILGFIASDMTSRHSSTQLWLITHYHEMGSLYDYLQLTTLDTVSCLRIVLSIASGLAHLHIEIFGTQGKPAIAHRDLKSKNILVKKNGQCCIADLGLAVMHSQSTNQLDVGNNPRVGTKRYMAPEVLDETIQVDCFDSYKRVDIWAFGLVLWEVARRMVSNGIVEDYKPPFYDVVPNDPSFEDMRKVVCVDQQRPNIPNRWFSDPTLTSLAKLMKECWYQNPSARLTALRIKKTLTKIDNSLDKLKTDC
In short: as §1

[6] = molecular target: T6, panel of 203 kinases (Homo sapiens, UniProt P78368); details: 10 µM, n=1; kinase CSNK1G2; read-out: Percent inhibition CSNK1G2
T6 construct: purchased DiscoverX (KINOMEscan)
In short: as §1

[7] = molecular target: T7, panel of 203 kinases (Homo sapiens, UniProt P36896); details: 10 µM, n=1; kinase ACVR1B; read-out: Percent inhibition ACVR1B
T7 construct: purchased DiscoverX (KINOMEscan)
T7 sequence (P36896 24-505): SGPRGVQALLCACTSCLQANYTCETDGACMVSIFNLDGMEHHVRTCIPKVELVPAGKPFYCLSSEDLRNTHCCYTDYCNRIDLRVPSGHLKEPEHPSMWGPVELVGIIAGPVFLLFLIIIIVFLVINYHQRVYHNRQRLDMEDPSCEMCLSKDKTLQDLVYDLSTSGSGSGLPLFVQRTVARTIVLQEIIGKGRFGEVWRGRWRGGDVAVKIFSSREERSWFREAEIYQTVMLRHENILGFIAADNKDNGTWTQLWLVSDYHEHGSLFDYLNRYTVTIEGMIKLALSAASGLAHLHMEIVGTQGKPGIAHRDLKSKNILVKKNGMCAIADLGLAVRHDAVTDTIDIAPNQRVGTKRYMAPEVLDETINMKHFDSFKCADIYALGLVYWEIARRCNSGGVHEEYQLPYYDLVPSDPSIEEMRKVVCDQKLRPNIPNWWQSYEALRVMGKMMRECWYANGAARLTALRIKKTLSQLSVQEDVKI
In short: as §1

[8] = molecular target: T8, panel of 203 kinases (Homo sapiens, UniProt P45983); details: 10 µM, n=1; kinase JNK1; read-out: Percent inhibition JNK1
T8 construct: purchased DiscoverX (KINOMEscan)
In short: as §1

T2 sequence (P54646 whole entry): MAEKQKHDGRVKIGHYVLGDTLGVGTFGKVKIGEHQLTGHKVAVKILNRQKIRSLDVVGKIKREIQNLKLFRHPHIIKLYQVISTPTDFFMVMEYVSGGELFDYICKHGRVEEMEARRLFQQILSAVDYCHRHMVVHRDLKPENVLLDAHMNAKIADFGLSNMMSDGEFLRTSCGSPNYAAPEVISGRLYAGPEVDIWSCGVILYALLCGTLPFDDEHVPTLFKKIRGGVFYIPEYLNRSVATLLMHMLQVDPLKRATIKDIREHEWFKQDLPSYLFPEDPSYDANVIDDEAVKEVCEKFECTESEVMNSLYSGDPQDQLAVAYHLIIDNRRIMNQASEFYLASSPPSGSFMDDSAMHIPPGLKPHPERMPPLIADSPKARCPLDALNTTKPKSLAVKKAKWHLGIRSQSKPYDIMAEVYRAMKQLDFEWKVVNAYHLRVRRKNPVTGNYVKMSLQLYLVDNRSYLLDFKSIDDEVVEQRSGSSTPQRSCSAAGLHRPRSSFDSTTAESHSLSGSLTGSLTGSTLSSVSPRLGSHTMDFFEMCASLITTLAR
T8 sequence (P45983 whole entry): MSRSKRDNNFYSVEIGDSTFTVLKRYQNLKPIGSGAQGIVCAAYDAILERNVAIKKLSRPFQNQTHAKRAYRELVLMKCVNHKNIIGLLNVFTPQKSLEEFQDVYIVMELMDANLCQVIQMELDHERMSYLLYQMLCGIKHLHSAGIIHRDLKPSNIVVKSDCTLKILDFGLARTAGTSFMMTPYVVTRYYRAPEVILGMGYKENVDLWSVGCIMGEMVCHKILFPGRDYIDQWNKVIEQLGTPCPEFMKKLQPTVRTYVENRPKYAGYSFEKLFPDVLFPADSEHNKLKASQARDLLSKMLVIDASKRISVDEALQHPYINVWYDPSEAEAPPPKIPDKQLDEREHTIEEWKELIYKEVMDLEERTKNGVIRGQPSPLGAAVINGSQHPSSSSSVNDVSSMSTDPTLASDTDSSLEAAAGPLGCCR
T3 sequence (P08069 31-1367): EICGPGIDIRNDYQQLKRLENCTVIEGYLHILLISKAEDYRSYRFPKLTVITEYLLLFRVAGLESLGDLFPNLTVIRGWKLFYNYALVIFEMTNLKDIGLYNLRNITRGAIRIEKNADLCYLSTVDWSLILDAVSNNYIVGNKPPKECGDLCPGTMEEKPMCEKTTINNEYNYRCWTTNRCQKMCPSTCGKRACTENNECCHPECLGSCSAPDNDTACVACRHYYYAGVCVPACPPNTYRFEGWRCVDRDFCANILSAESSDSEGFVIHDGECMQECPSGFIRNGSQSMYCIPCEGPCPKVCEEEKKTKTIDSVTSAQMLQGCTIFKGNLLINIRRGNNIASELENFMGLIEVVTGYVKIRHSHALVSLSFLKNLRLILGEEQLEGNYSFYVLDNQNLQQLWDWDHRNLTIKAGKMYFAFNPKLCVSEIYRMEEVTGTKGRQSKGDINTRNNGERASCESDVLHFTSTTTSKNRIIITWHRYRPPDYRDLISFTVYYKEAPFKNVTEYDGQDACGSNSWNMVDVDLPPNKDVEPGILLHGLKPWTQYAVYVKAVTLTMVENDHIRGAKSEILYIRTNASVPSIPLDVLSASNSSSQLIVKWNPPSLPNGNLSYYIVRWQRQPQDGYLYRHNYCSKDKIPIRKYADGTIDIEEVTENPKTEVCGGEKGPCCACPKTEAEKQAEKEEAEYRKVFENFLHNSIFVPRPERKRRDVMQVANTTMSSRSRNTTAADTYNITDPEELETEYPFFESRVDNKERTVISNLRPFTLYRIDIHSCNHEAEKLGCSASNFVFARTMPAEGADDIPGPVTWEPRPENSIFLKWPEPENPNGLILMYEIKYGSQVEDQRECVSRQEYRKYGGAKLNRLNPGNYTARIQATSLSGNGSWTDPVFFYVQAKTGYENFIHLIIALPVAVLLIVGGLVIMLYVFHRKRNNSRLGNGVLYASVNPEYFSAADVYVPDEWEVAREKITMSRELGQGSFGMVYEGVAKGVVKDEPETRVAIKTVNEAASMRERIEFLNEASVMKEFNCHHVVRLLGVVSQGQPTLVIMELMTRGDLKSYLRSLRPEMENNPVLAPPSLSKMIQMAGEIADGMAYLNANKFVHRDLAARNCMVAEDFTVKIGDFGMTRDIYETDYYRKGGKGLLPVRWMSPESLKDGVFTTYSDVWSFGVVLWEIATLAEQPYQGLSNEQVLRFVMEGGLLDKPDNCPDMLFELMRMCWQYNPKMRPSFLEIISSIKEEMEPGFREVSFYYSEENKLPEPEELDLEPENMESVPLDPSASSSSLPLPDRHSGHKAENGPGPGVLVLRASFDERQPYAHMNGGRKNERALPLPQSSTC
T6 sequence (P78368 whole entry): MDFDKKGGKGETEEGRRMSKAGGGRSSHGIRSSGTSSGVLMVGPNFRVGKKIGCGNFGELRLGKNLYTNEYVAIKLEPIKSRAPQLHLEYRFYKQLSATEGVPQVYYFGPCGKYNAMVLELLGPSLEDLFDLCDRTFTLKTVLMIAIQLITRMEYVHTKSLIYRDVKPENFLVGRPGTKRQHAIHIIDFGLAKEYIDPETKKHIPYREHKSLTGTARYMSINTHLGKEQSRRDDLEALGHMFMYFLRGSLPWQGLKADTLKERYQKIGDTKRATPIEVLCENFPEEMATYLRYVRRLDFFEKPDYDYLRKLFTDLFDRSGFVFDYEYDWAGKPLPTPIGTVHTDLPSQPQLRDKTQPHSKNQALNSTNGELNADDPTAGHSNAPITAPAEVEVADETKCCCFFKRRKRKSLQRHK
T4 sequence (Q9Y243 whole entry): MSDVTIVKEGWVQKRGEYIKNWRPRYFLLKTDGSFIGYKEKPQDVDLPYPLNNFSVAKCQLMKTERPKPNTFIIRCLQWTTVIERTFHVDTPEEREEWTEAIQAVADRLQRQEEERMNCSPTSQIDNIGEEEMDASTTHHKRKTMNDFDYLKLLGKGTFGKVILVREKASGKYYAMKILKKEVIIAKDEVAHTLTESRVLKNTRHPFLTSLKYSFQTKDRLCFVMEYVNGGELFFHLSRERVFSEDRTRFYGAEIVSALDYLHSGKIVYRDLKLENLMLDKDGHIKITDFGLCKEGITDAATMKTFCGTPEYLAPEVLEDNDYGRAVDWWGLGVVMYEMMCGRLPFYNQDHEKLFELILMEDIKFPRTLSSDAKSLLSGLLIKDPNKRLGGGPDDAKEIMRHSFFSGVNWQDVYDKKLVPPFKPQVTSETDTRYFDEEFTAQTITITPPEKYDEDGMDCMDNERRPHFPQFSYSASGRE

## CN1CCN(c2ccc(Nc3nccc(-c4cnn5ncccc45)n3)cc2C#N)CC1 [Compound 1]
[1]
  inhibition at 10 µM: 0%
[2]
  inhibition at 10 µM: 81.8%
[3]
  inhibition at 10 µM: 99.4%
[4]
  inhibition at 10 µM: 0%
[5]
  inhibition at 10 µM: 98.8%
[6]
  inhibition at 10 µM: 88.3%
[7]
  inhibition at 10 µM: 77.1%
[8]
  inhibition at 10 µM: 100%

## COc1ccc(Nc2nccc(-c3cnn4ncccc34)n2)cc1 [Compound 2]
[1]
  inhibition at 10 µM: 65.1%
[2]
  inhibition at 10 µM: 0%
[3]
  inhibition at 10 µM: 98.1%
[4]
  inhibition at 10 µM: 0%
[5]
  inhibition at 10 µM: 92.1%
[6]
  inhibition at 10 µM: 93.6%
[7]
  inhibition at 10 µM: 0%
[8]
  inhibition at 10 µM: 98.5%

## Cc1ccc(O)cc1Nc1ccnc(Nc2cccc(C(N)=O)c2)n1 [Compound 3]
[1]
  inhibition at 10 µM: 100%
[2]
  inhibition at 10 µM: 0%
[3]
  inhibition at 10 µM: 0%
[4]
  inhibition at 10 µM: 0%
[5]
  inhibition at 10 µM: 99.7%
[6]
  inhibition at 10 µM: 93.3%
[7]
  inhibition at 10 µM: 96.5%
[8]
  inhibition at 10 µM: 76.7%

## Cc1ccc(O)cc1N(C)c1ccnc(Nc2cccc(S(N)(=O)=O)c2)n1 [Compound 4]
[1]
  inhibition at 10 µM: 100%
[2]
  inhibition at 10 µM: 0%
[3]
  inhibition at 10 µM: 0%
[4]
  inhibition at 10 µM: 0%
[5]
  inhibition at 10 µM: 99.9%
[6]
  inhibition at 10 µM: 75.8%
[7]
  inhibition at 10 µM: 99%
[8]
  inhibition at 10 µM: 87.1%

## Fc1cccc(COc2ccc(Nc3ncnc4c3CN(CCN3CCOCC3)CC4)cc2Cl)c1 [Compound 6]
[1]
  inhibition at 10 µM: 0%
[2]
  inhibition at 10 µM: 0%
[3]
  inhibition at 10 µM: 0%
[4]
  inhibition at 10 µM: 0%
[5]
  inhibition at 10 µM: 0%
[6]
  inhibition at 10 µM: 0%
[7]
  inhibition at 10 µM: 0%
[8]
  inhibition at 10 µM: 0%

## COc1cc(Nc2nccc(-c3sc(N)nc3-c3cccc(NC(=O)c4c(F)cccc4F)c3)n2)cc(OC)c1OC [Compound 7]
[1]
  inhibition at 10 µM: 100%
[2]
  inhibition at 10 µM: 100%
[3]
  inhibition at 10 µM: 95.9%
[4]
  inhibition at 10 µM: 0%
[5]
  inhibition at 10 µM: 0%
[6]
  inhibition at 10 µM: 0%
[7]
  inhibition at 10 µM: 74.9%
[8]
  inhibition at 10 µM: 100%

## C[C@@H](Oc1cc(-c2cnc3ccccn23)sc1C(N)=O)c1ccccc1Cl [Compound 8]
[1]
  inhibition at 10 µM: 0%
[2]
  inhibition at 10 µM: 0%
[3]
  inhibition at 10 µM: 0%
[4]
  inhibition at 10 µM: 0%
[5]
  inhibition at 10 µM: 0%
[6]
  inhibition at 10 µM: 0%
[7]
  inhibition at 10 µM: 0%
[8]
  inhibition at 10 µM: 0%

## c1ccc(COc2cccc(-c3ccnc4[nH]ccc34)c2)cc1 [Compound 9]
[1]
  inhibition at 10 µM: 0%
[2]
  inhibition at 10 µM: 0%
[3]
  inhibition at 10 µM: 0%
[4]
  inhibition at 10 µM: 0%
[5]
  inhibition at 10 µM: 0%
[6]
  inhibition at 10 µM: 0%
[7]
  inhibition at 10 µM: 0%
[8]
  inhibition at 10 µM: 0%

## Clc1ccc(Nc2ncc(-c3ccccc3)s2)cc1 [Compound 10]
[1]
  inhibition at 10 µM: 0%
[2]
  inhibition at 10 µM: 0%
[3]
  inhibition at 10 µM: 0%
[4]
  inhibition at 10 µM: 0%
[5]
  inhibition at 10 µM: 0%
[6]
  inhibition at 10 µM: 0%
[7]
  inhibition at 10 µM: 0%
[8]
  inhibition at 10 µM: 0%

## Nc1ncc2c(-c3ccncc3)c[nH]c2n1 [Compound 11]
[1]
  inhibition at 10 µM: 0%
[2]
  inhibition at 10 µM: 0%
[3]
  inhibition at 10 µM: 0%
[4]
  inhibition at 10 µM: 0%
[5]
  inhibition at 10 µM: 66.2%
[6]
  inhibition at 10 µM: 89.7%
[7]
  inhibition at 10 µM: 0%
[8]
  inhibition at 10 µM: 77.1%
